# Laboratory results taken from the METLIN SMRT retention time set (Domingo-Almenara et al. 2019).
# Experiment: gradient 5% acetonitrile 3 min, to 50% in 2 min, to 85% in 15 min, held 3 min, 100 µL/min
# Conditions: column: Zorbax Extend-C18 2.1 x 50 mm; eluents: water / acetonitrile, 0.1% formic acid
# Summary of the method: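 Using water and acetonitrile that each contained 0.1% formic acid, mixtures of ~100 pure standards were separated at 100 μL/min on a Zorbax Extend-C18 column (2.1 × 50 mm, 1.8 μm). The HPLC fed a quadrupole time-of-flight mass spectrometer working in positive and negative ionization mode, with dead and dwell volumes of 40 μL and 900 μL. Data were acquired over 3 months. Retention time was read from computationally picked adduct peaks after manual inspection of each.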
row,Compound,RP-LC retention time [s]
1,Cc1cc(C(=O)NCc2ccc(F)cc2)nc2cc(-c3cccs3)nn12,1090
2,O=C(NCc1ccc2c(c1)OCO2)c1c(O)c2cccnc2n(-c2ccc(F)cc2)c1=O,1120
3,COc1ccc2nc(NC(=O)Cc3csc4nc(-c5ccc(C)c(C)c5)cn34)sc2c1,885
4,Cc1cc(C)n(CCNC(=O)NC(c2ccccc2)c2ccccc2)n1,716
5,O=C(Nc1ccc(F)cc1)N1CCN(Cc2nc3cccnc3n2-c2ccc(F)cc2)CC1,624
6,COc1ccc(C2(C(=O)Nc3cc(-c4cccnc4)no3)CC2)cc1,816
7,Cc1ccc(-c2nc(Cn3ccnc3C)no2)cc1,634
8,Cn1cc2c(N3CCCC3)nc(C(=O)NCCN3CCc4ccccc4C3)nc2n1,523
9,O=C(Cn1cccc(-c2nc(-c3ccc(F)cc3)no2)c1=O)Nc1ccc(F)cc1,878
10,O=C(Nc1ccc(F)c(F)c1)c1cccn1Cc1noc(C2CC2)n1,966
11,CCCn1cc(C(=O)NCCCOC)c(S(=O)(=O)N2CCN(c3ccccc3Cl)CC2)n1,1020
12,Cc1cc(N2CCN(C(=O)c3nccc4ccccc34)CC2)nc2nnc(C)n12,592
13,O=C(Nc1ccccc1F)N1CCC(N2C(=O)C3(CCCCC3)C2c2ccccc2)CC1 (centres undefined),940
14,O=C(Nc1ccc(-c2cn3cccnc3n2)cc1)C1CCCC1,648
15,Cc1ccc2nc(NC(=O)CN3CCC(C(N)=O)CC3)sc2c1,592
16,CN(C)c1ccc(CNC(=O)C2CCN(S(=O)(=O)c3cn(C)cn3)CC2)cc1,550
17,Cn1nc2ccc(S(=O)(=O)N3CCCCC3)cn2c1=O,703
18,COc1cc(CNc2nnc(-c3nnc(C4CC4)o3)c3ccccc23)cc(OC)c1,878
19,CCOC(=O)c1csc(NC(=O)C2CCCN(c3ccc(-c4ccccc4)nn3)C2)n1 (centres undefined),659
20,CC(C)Oc1ccccc1CN1CCC2(CC1)CC(C)(O)CCO2 (centres undefined),627
21,O=C(c1ccncc1)N1CC(C(=O)N2CCN(c3ccccn3)CC2)C2(CCCCC2)C1 (centres undefined),570
22,c1ccc(-c2nc3ccccn3c2Nc2ccc3c(c2)OCCO3)cc1,665
23,COc1ccccc1CNC(=O)Cn1nc2cc(-c3ccccc3)nc(C)n2c1=O,705

row,Compound,RP-LC retention time [s]
1,CCCN1C(=O)COc2ccc(-c3csc(NC(=O)C4CCCO4)n3)cc21 (centres undefined),896
2,COc1ccc(CNC(=O)CSc2ccc(N3CCCC(C(=O)NC4CC4)C3)nn2)cc1 (centres undefined),631
3,CCCC(=O)Nc1cc2c(cc1S(=O)(=O)c1ccccc1)n(CC)c(=O)n2CC,883
4,Cc1ccccc1-c1nnc(CSc2nnc(NC(=O)c3c(F)cccc3F)s2)o1,905
5,CSc1ccc(C2c3[nH]c4ccccc4c3CCN2C(=O)c2cccs2)cc1 (centres undefined),1220
6,CCOc1ccc(CC(=O)N2CCCn3nc(-c4ccc(Cl)cc4)cc3C2)cc1,1020
7,O=C(NCc1ccccc1F)c1cn(-c2ccc(-c3nc(C4CC4)no3)cn2)cn1,929
8,Cc1ccc(CNC(=O)C2CCCN(S(=O)(=O)c3c[nH]c(C(=O)N4CCCC4)c3)C2)o1 (centres undefined),729
9,CCN1C(=O)C2(CCN(C(=O)NC3CCCCC3)CC2)c2ccccc21,867
10,O=C(Nc1ccccc1F)C1CCCN(S(=O)(=O)c2c[nH]c(C(=O)N3CCCCCC3)c2)C1 (centres undefined),880
11,O=C(NCCc1c[nH]c2ccc(Cl)cc12)c1cc2n(n1)CCCN(Cc1ccccc1)C2=O,904
12,O=C(NCc1ccccc1)C(=O)c1c[nH]c2ccccc12,605
13,CC(C)c1ccc(NC(=O)C2CCCN(c3ccc(=O)n(-c4cccc(Cl)c4)n3)C2)cc1 (centres undefined),1120
14,Cc1ccc(Cl)cc1NC(=O)N1CCCC(Cn2cnc3cccnc32)C1 (centres undefined),709
15,COc1nn(C)cc1C(=O)N1CCC(C(=O)NCc2cccs2)CC1,613
16,CN1CCN(S(=O)(=O)c2cccc(-c3nc(-c4ccccc4)no3)c2)CC1,694
17,N#CC1=CN(c2cccc(Br)c2)c2ccccc2S1(=O)=O,939
18,O=C(NC1CCCCC1)C1CCCN(c2ccc(=O)n(-c3ccc(F)cc3)n2)C1 (centres undefined),804
19,Cn1nc(C(=O)N2CCCCC2)c2c1CCN(C(=O)CCC(=O)N1CCC(N3CCCCC3)CC1)C2,586
20,O=C(CCn1cnc2c(cnn2-c2ccccc2)c1=O)Nc1ccc2c(c1)OCCO2,754
21,CCn1c(=O)c(Nc2ccc(C)c(Cl)c2)nc2ccncc21,649
22,NC(=O)c1cc2cc(Br)ccc2[nH]1,719
23,CCCn1c(=O)sc2cc(S(=O)(=O)N3CCC(C(=O)N(C)Cc4ccco4)CC3)ccc21,901

row,Compound,RP-LC retention time [s]
1,O=C(c1ccoc1)N1CCCC(Nc2ncnc3c2CCC3)C1 (centres undefined),574
2,O=C(CN1CCC(c2nc(-c3ccc(F)cc3)no2)CC1)NCc1ccc2c(c1)OCO2,720
3,COC(=O)C1=CN(CC(=O)N2CCN(c3ccccc3)CC2)S(=O)(=O)N=C1C,871
4,COCc1cnc2c(c1SCc1ccccc1F)c(=O)n(C)c(=O)n2C,899
5,CC(=O)Nc1ccc(SCCCC(=O)Nc2ccc3c(c2)OCCO3)nn1,634
6,CCN1CCN(CCCNC(=O)c2oc3ccc4c(c3c2C)C(O)CC(C)(C)O4)CC1 (centres undefined),592
7,Cc1cnc(C2CC2)n1C1CCCN(S(=O)(=O)Cc2ccccc2)C1 (centres undefined),637
8,CCNC(=O)c1ccc2c(c1)CCCN2S(=O)(=O)CC,709
9,CCOc1ccc(-c2noc(Cn3c(=O)n(CC4CCCO4)c(=O)c4ccccc43)n2)cc1 (centres undefined),1050
10,COc1ccc(NC(=O)c2cc(C)n3nc(-c4ccco4)cc3n2)c(OC)c1,1100
11,CCc1noc(C2CCCCN2Cc2nc(Cc3ccccc3)no2)n1 (centres undefined),958
12,Cc1cc(C)n(CCNC(=O)CSc2ccc(F)cc2)n1,675
13,FC(F)c1nc2ccccc2n1-c1nc(N2CCOCC2)nc(N2CCOCC2)n1,938
14,COc1ccc(CNC(=O)N2CCC(OC3CCN(S(C)(=O)=O)CC3)CC2)cc1,699
15,Cc1cc(F)ccc1NC(=O)c1n[nH]nc1Nc1ccc(F)cc1,923
16,Cn1cc(NC(=O)N2CCN(c3ccccn3)CC2)c2ccccc2c1=O,538
17,O=C(c1nnn2c1COC(c1ccc(Cl)cc1)C2)N1CCN(C(=O)c2c(F)cccc2F)CC1 (centres undefined),951
18,CC(C)Cn1c(=O)c(C(=O)NCCCN2CCCCC2)nc2cccnc21,642
19,Cc1ccc(NC(=O)Cc2c(C(=O)O)c(C)cn2C)nc1,642
20,CC12C(=O)OC(=O)C1(C)C1CCC2O1 (centres undefined),813
21,CC(C)CN(CC(C)C)c1nc(-c2ccc(C(C)(C)C)cc2)nc2ccccc12,1240
22,O=C(NCCc1nc2cccnc2n1-c1ccccc1)C1CCCCC1,730
23,O=C1COc2cc(S(=O)(=O)N3CCCC3C(=O)NC3CCCCCC3)c(Cl)cc2N1 (centres undefined),819

row,Compound,RP-LC retention time [s]
1,COCCCNC(=O)C(C)n1nc(C)c2c(C)n(-c3ccccc3)nc2c1=O (centres undefined),686
2,Cc1ccc(CNC(=O)N2CCCC(OCc3nc(C)no3)C2)cc1 (centres undefined),770
3,CC(=O)N1CCc2cc(N3CC(C(=O)Nc4ccc(C)cc4Cl)CC3=O)ccc21 (centres undefined),735
4,CC1CCN(C(=O)c2ccc(OCC3CCCN(C(=O)C4CCCO4)C3)cc2)CC1 (centres undefined),829
5,COc1ccc(-c2ncccc2CNS(=O)(=O)c2cccc(OC)c2)cc1,670
6,COc1ccc(-c2ncc3c(n2)CCN(C(=O)Nc2ccc(C)c(F)c2)C3)cc1,996
7,CNC(=O)C1CC(=O)N(C2CCCCC2)C1 (centres undefined),609
8,O=C(NCC1CCCO1)c1ccc2c(c1)NC(=O)C1CCC(=O)N21 (centres undefined),598
9,Cc1ccc(-c2noc(Cn3c(=O)n(Cc4ccc5c(c4)OCO5)c(=O)c4sccc43)n2)cc1C,1180
10,O=C(COc1ccccc1)N1CCN(C(=O)c2nnn3c2COC(c2ccccc2)C3)CC1 (centres undefined),850
11,Cc1cc(C)cc(Nc2c(-c3ccc4c(c3)OCO4)nc3cnccn23)c1,984
12,CC(=O)N1CCc2cc(N3CC(C(=O)N4CCC5(CC4)OCCO5)CC3=O)ccc21 (centres undefined),620
13,CC(=O)c1cccc(NC(=O)c2csc3c2CCC(C)C3)c1 (centres undefined),997
14,CC(C)n1cnc2ccc(-c3noc(CCc4ccccc4)n3)cc21,797
15,O=c1ccn(-c2cccc(F)c2)nc1-c1nc(-c2cccc(Br)c2)no1,995
16,Cc1ccc(NC(=O)C2(C)Oc3cccnc3NC2=O)cc1F (centres undefined),755
17,CCCCCn1c(SCC(=O)OCC)nc2cc(C(=O)N3CCC(C(N)=O)CC3)ccc2c1=O,783
18,Cc1cc(NCc2ccccn2)n2ncnc2n1,562
19,O=C(Nc1cccc(OCc2nnc(-c3ccc(F)cc3)o2)c1)c1ccsc1,920
20,CCNc1cc(N2CCC(CCC(=O)Nc3ccc4c(c3)OCCO4)CC2)ncn1,572
